A short description of experiment [1]: Inhibition of arabidopsis recombinant allene oxide synthase. As to conditions: read-out: I50.
Experiment [2] in a line: Binding affinity at arabidopsis recombinant allene oxide synthase.
In experiment [3] the test system is Arabidopsis. The experiment is described as follows: Inhibition of arabidopsis recombinant allene oxide synthase at 1 uM.

For `CCCCCCCOC(=O)CCCCCCCO[C@@H](Cn1ccnc1)c1ccc(Cl)cc1Cl`, the IC50 in experiment [1] came out at 0.005 µM. Further, the Kd (in general, the free concentration of one partner at which half of the binding sites on the other are occupied at equilibrium, for simple one-to-one binding) in experiment [2] was determined as 1.4 µM. In addition, the inhibition – broadly, how much of the control response was suppressed – in experiment [3] is 93%.
For `CCCCCCCOC(=O)CCCCCCCO[C@H](Cn1ccnc1)c1ccc(Cl)cc1Cl` the same measures were 0.95 µM, 4.8 µM and 50%.

The record behind these values is ChEMBL document CHEMBL1142282, “Asymmetric synthesis and stereochemical structure-activity relationship of (R)- and (S)-8-[1-(2,4-dichlorophenyl)-2-imidazol-1-yl-ethoxy] octanoic acid heptyl ester, a potent inhibitor of allene oxide synthase” (Bioorg Med Chem, 2008).
